PMC10087074 (Clinical and Translational Science, 2023)
Where two headings read alike, the source gives them in different places.

Key:
[1] = Population PK of trazodone and gabapentin as single agents in mice; assay type: in vivo; settings: for D 1 (duration of the zero‐order absorption) / k 12 (intercompartment rate constant) / k 21 (intercompartment rate constant): male mice, fasting, population PK estimate; for Inter‐individual variability ω2 of V / Inter‐individual variability ω2 of k / Inter‐individual variability ω2 of k12: mice, population PK variance estimate; for Vd/F / k el: male, mouse, plasma
plasma protein [2] = settings: cited from earlier work
plasma protein [3] = settings: cited from earlier work; remark: listed apart in the source
[4] = system: acetic acid‐induced writhings in male CD‐1 mice; test: Acetic acid‐induced writhing test in mice with PK/PD model; settings: for interindividual variability in the k 2, percent coefficient of variation: single‐agent model
[5] = system: patients with diabetes with peripheral neuropathy / painful distal symmetrical polyneuropathy; settings: cited from earlier work
[6] = system: thermal hyperalgesia in CCI rat model; settings: cited from earlier work
[7] = gabapentin 10, 30 and 100 mg/kg
[8] = combination model, interaction (synergism), trazodone‐gabapentin 0.075–1.5, 0.15–1.5 mg/kg
[9] = combination model, pure additivity, trazodone‐gabapentin 0.075–1.5, 0.15–1.5 mg/kg
[10] = combination model, pure additivity, trazodone‐gabapentin 0.5–5, 1.5–15 mg/kg
[11] = single model, gabapentin i.p. 1.5, 5 and 15 mg/kg
[12] = 31 patients, oral trazodone 50 or 100 mg/day for 2 weeks

NCC1(CC(=O)O)CCCCC1 [Gabapentin]
D 1 (duration of the zero‐order absorption) [1, 7]: 0.167 h | k 12 (intercompartment rate constant) [1, 7]: 0.935 h⁻¹ | k 21 (intercompartment rate constant) [1, 7]: 0.110 h⁻¹ | Inter‐individual variability ω2 of V [1, 7]: 0.00287 | Inter‐individual variability ω2 of k [1, 7]: 0.337 | Inter‐individual variability ω2 of k12 [1, 7]: 1.43 | Vd/F ([1]; 100 mg/kg): 0.846 L/kg | k el ([1]; 100 mg/kg): 3.11e-05 s⁻¹ | plasma protein binding (plasma protein [2]; humans): not protein‐bound | plasma protein binding (plasma protein [3]; mice): not protein‐bound | Interindividual variance ω2 of k2 [4, 8]: 1.78 | k 2 (potency parameter) [4, 8]: 817 M⁻¹ s⁻¹ | Interindividual variability ω2 of k2 [4, 9]: 1.67 | k 2 (potency parameter) [4, 9]: 1350 M⁻¹ s⁻¹ | Interindividual variability ω2 of k2 [4, 10]: 1.71 | k 2 (potency parameter) [4, 10]: 667 M⁻¹ s⁻¹ | antinociceptive effect (number of writhes vs vehicle) ([4]; gabapentin alone 1.5 mg/kg i.p.): ineffective | antinociceptive effect (number of writhes vs vehicle) ([4]; gabapentin alone 5 or 15 mg/kg i.p., p < 0.001): significant reduction of the writhes number | Interindividual variability ω2 of k2 [4, 11]: 1.97 | k 2 (potency parameter) [4, 11]: 765 M⁻¹ s⁻¹ | interindividual variability in the k 2, percent coefficient of variation [4]: 140

O=c1n(CCCN2CCN(c3cccc(Cl)c3)CC2)nc2ccccn12 [Trazodone]
Vd/F ([1]; 10 mg/kg): 5.95 L/kg | k el ([1]; 10 mg/kg): 0.000347 s⁻¹ | D 1 (duration of the zero‐order absorption) ([1]; trazodone 1, 3 and 10 mg/kg): 0.0833 h | k 12 (intercompartment rate constant) ([1]; trazodone 1, 3 and 10 mg/kg): 0.982 h⁻¹ | k 21 (intercompartment rate constant) ([1]; trazodone 1, 3 and 10 mg/kg): 1.51 h⁻¹ | Inter‐individual variability ω2 of V ([1]; trazodone 1, 3 and 10 mg/kg): 0.0526 | Inter‐individual variability ω2 of k ([1]; trazodone 1, 3 and 10 mg/kg): 0.00899 | Inter‐individual variability ω2 of k12 ([1]; trazodone 1, 3 and 10 mg/kg): 0.577 | plasma protein binding (plasma protein [2]; human, ref internal unpublished data): 97% | plasma protein binding (plasma protein [3]; mouse, ref internal unpublished data): 89% | patients who experienced complete relief [5, 12]: 22.6% | patients who experienced symptomatic relief [5, 12]: 61.3% | effect on pain and numbness ([5]; six patients with diabetes affected by peripheral neuropathy, 100 mg/day): good effect in pain relief and numbness | effect on thermal hyperalgesia [6]: dose‐dependent analgesic effect | Interindividual variance ω2 of k2 [4, 8]: 1.42 | k 2 (potency parameter) [4, 8]: 182000 M⁻¹ s⁻¹ | Interindividual variability ω2 of k2 [4, 9]: 1.43 | k 2 (potency parameter) [4, 9]: 212000 M⁻¹ s⁻¹ | Interindividual variability ω2 of k2 [4, 10]: 1.40 | k 2 (potency parameter) [4, 10]: 170000 M⁻¹ s⁻¹ | k 2 (potency parameter) ([4]; single model, trazodone o.s. 0.075, 0.15, 0.5, 1.5, 2.5 and 4.5 mg/kg): 182000 M⁻¹ s⁻¹ | Interindividual variability ω2 of k2 ([4]; single model, trazodone o.s. 0.075-4.5 mg/kg): 1.42 | interindividual variability in the k 2, percent coefficient of variation [4]: 119 | antinociceptive effect (number of writhes vs vehicle) ([4]; trazodone alone 0.075 or 0.15 mg/kg o.s.): ineffective | antinociceptive effect (number of writhes vs vehicle) ([4]; trazodone alone 0.5 or 1.5 mg/kg o.s., p < 0.001): significant reduction of the writhes number
